Each structure is given as a SMILES string.

IRAK4, sequence (Q9NWZ3 whole entry, species assumed): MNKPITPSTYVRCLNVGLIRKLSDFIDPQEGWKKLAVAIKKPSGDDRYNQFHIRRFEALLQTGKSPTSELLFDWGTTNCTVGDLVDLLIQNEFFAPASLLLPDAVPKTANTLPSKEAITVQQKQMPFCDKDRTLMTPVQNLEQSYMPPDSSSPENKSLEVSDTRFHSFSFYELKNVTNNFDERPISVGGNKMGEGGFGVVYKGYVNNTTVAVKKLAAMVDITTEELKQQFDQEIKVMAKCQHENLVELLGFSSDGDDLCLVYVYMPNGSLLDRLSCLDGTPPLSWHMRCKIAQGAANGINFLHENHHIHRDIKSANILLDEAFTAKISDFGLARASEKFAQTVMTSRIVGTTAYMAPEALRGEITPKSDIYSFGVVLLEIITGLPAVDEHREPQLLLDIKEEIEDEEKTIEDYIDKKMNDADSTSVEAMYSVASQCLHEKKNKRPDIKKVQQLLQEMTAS

The first assay concerns the target IRAK4 (Homo sapiens (Human), UniProt Q9NWZ3). In words: IRAK-4 biochemical kinase assay, AlphaScreen format. The settings on record: 1 nM IRAK4, 1.6 μM peptide, 10 μM ATP, 3.5 h at RT; class symbols. Here is the method: The biochemical assay is in a AlphaScreen format. The kinase reaction is based on the IRAK-4 phosphorylation of a biotin labeled peptide. The phosphopeptide is incubated with anti-phosphothreonine antibody as well as streptavidin- and protein A-coated beads. Binding of the protein-A coated beads to the antibody and the streptavidin beads to the peptide, leads to an energy transfer from one bead to the other, ultimately producing a luminescent/fluorescent signal.
By IC50 is commonly meant the concentration that inhibits the measured activity by half. A lower IC50 goes with greater potency in that assay. In the case of `Cn1cc2c(n1)C(=O)NCCCCOc1cc(ccn1)-c1nc(c[nH]1)C(=O)N2` [Example 92], the IC50 is less than 10000 nM.

`CN1CCN(C(=O)c2ccc3c(c2)NC(=O)c2csc(n2)-c2ccnc(c2)NCCCCCO3)CC1` [Compound 23]: the IC50 was less than 100 nM.

As to `CCN1CCCCCCCCNc2cc(ccn2)-c2nc(cs2)C1=O` [Example 66], the IC50 was less than 1000 nM.

`O=C1NCC2CCCC(C2)OCCCNc2cc(ccn2)-c2nc1cs2` (stereo not shown) [Example 80] had a 50% inhibitory concentration (IC50) of less than 10000 nM.

In turn, `O=C1Nc2cn(C3CCOCC3)nc2C(=O)NCCNCCCc2cc(ccn2)-c2nc1cs2` [Example 168] returned an IC50 of less than 100 nM.

For `Cn1cc2c(n1)C(=O)NCCOCCOc1cc(ccn1)-c1cccc(c1)C(=O)N2` [Example 209], the IC50 is less than 1000 nM.

Turning to `O=C1Nc2cn(C3CCOCC3)nc2C(=O)NCCCOCCCc2cc(ccn2)-c2nc1cs2` [Example 216], the IC50 was less than 100 nM.

Molecule `O=C1Nc2cn(C3CCOCC3)nc2C(=O)NCCOCCOc2cc(ccn2)-c2csc1n2` [Example 214] gave an IC50 of less than 1000 nM.

`O=C1Nc2cn(C3CCOCC3)nc2C(=O)NCCOCCOc2cc(ccn2)-c2cc1ccn2` [Example 212]: the IC50 was less than 1000 nM.

Regarding `O=C1NCCOC2CCC(CC2)CNc2cc(ccn2)-c2nc1cs2` [Example 88], the IC50 was less than 10000 nM.

Molecule `O=C1c2coc(n2)-c2ccnc(c2)NCCCCCOCC2CCCN12` (stereo not shown) [Compound 59] came in with an IC50 of less than 100 nM.

The molecule `Cn1cc2c(n1)C(=O)NCCC/C=C/CCCN(C(=O)OC(C)(C)C)c1cc(ccn1)-c1nc(co1)C(=O)N2` [Compound 28] came in with an IC50 of less than 1000 nM.

Molecule `CC(C)(C)OC(=O)N1CCNC(=O)c2nn(C3CCOCC3)cc2NC(=O)c2csc(n2)-c2ccnc(c2)OCC1` [Example 167] yielded an IC50 of less than 1000 nM.

`CC1CNC(=O)c2coc(n2)-c2ccnc(c2)NCCCCCO1` (stereo not shown) [Example 74] yielded an IC50 of less than 10000 nM.

In the case of `O=C(CCC1NC(=O)c2nn(C3CCOCC3)cc2NC(=O)c2csc(n2)-c2ccnc(c2)CCCNC1=O)NCc1ccccc1` (stereo not shown) [Example 193], the IC50 is less than 1000 nM.

With `O=C1Nc2ccccc2OCC/C=C/COc2cc(ccn2)-c2nc1co2` [Example 1], the IC50 is less than 100 nM.

On to `CCOC(=O)CC(=O)N1CCCc2cc(ccn2)-c2nc(cs2)C(=O)Nc2cn(C3CCOCC3)nc2C(=O)NCC1` [Example 189], for which the IC50 is less than 100 nM.

As to `NC(=O)CCC1NC(=O)c2nn(C3CCOCC3)cc2NC(=O)c2csc(n2)-c2ccnc(c2)CCCNC1=O` (stereo not shown) [Example 195], the IC50 is less than 1000 nM.

Take `Cn1cc2c(n1)C(=O)NCCOCCOc1cc(ccn1)-c1cccc(n1)C(=O)N2` [Example 203]: the IC50 was less than 100 nM.

`Cn1cc2c(n1)C(=O)NCCOCCOc1cc(ccn1)-n1cc(cn1)C(=O)N2` [Example 202] returned an IC50 of less than 10000 nM.

`O=C1Nc2ccc(CCCN3CCCCC3)cc2OCCCCCNc2cc(ccn2)-c2nc1cs2` [Compound 27] came in with an IC50 of less than 100 nM.

Turning to `Cn1cc2c(n1)C(=O)NCCCCCc1cc(ccn1)-c1nc(cn1COCC[Si](C)(C)C)C(=O)N2` [Example 99], the IC50 is less than 10000 nM.

Consider `Cn1cc2c(n1)C(=O)NCCCOCCCc1cc(ccn1)-c1nc(cs1)C(=O)N2` [Example 215], for which the IC50 was less than 100 nM.

In turn, `CN(C)CCN1CCCCCCOc2cc(ccn2)-c2nc(co2)C1=O` [Compound 54] returned an IC50 of less than 1000 nM.

In turn, `O=C1Nc2ccccc2OCCCCCCn2cc(cn2)-c2nc1cs2` [Example 72] registered an IC50 of less than 100 nM.

On to `NC(=O)c1ccc2c(c1)NC(=O)c1csc(n1)-c1ccnc(c1)NCCCCCO2` [Compound 24], for which the IC50 was less than 100 nM.

In turn, `CCC(=O)N1CCCc2cc(ccn2)-c2nc(cs2)C(=O)Nc2cn(C3CCOCC3)nc2C(=O)NCC1` [Example 183] showed an IC50 of less than 100 nM.

Turning to `O=C1Nc2cn(C3CCOCC3)nc2C(=O)NCCN(C(=O)CCO)CCCc2cc(ccn2)-c2nc1cs2` [Example 188], the IC50 was less than 100 nM.

In turn, `CN(C)CCC(=O)N1CCCc2cc(ccn2)-c2nc(cs2)C(=O)Nc2cn(C3CCOCC3)nc2C(=O)NCC1` [Example 177] had a half-inhibitory concentration (IC50) of less than 100 nM.

`O=C1Nc2cn(C3CCOCC3)nc2C(=O)NCCCCCc2cc(ccn2)-c2nc1c[nH]2` [Example 97] showed an IC50 of less than 10000 nM.

`CCN1CCCCCCCCN(CC)c2cc(ccn2)-c2nc(cs2)C1=O` [Example 65] yielded an IC50 of less than 10000 nM.

For `O=C1Nc2cn(C3CCOCC3)nc2C(=O)NCCN(C(=O)C2CC2)CCCc2cc(ccn2)-c2nc1cs2` [Example 184], the IC50 is less than 100 nM.

As for `CCN1CCCCCCOc2cc(ccn2)-c2nc(co2)C1=O` [Compound 53], the IC50 is less than 100 nM.

As to `CN1CCCCNC(=O)c2nn(C)cc2NC(=O)c2csc(n2)-c2ccnc1c2` [Example 223], the IC50 is less than 100 nM.

Consider `O=C1Nc2cn(C3CCOCC3)nc2C(=O)NCCN(C(=O)C2CCOCC2)CCCc2cc(ccn2)-c2nc1cs2` [Example 190], for which the IC50 is less than 100 nM.

In the case of `O=C1Nc2cn(C3CCOCC3)nc2C(=O)NCCOCCOc2cc(ccn2)-c2cccc1n2` [Example 204], the IC50 was less than 1000 nM.

`O=C1NCC(C2CC2)OCCCCCNc2cc(ccn2)-c2nc1co2` (stereo not shown) [Example 75] gave an IC50 of less than 1000 nM.

In the case of `CN1CCCCNC(=O)c2nn(C3CCOCC3)cc2NC(=O)c2csc(n2)-c2ccnc1c2` [Example 224], the IC50 was less than 100 nM.

Regarding `O=C1NCCCCCCCCNc2cc(ccn2)-c2nc1cs2` [Example 64], the half-inhibitory concentration (IC50) is less than 1000 nM.

For `O=C1Nc2cn(C3CCOCC3)nc2C(=O)NCCCCCn2cc(cn2)-c2nc1co2` [Compound 42], the IC50 was less than 1000 nM.

The molecule `O=C1NCC(c2ccccc2)OCCCCCNc2cc(ccn2)-c2nc1co2` (stereo not shown) [Example 76] came in with a concentration for half-maximal inhibition (IC50) of less than 100 nM.

Take `O=C1Nc2cn(C3CCOCC3)nc2C(=O)NCCCc2cc(ccn2)-c2nc1cs2` [Example 192]: the IC50 was less than 10000 nM.

Consider `O=C1NCc2ccc(cc2)OCCOc2cc(ccn2)-c2nc1co2` [Example 78], for which the IC50 was less than 10000 nM.

`O=C1Nc2cn(C3CCOCC3)nc2C(=O)NC(CCO)C(=O)NCCCc2cc(ccn2)-c2nc1cs2` (stereo not shown) [Example 198]: the IC50 was less than 10000 nM.

`CC1NC(=O)c2nn(C3CCOCC3)cc2NC(=O)c2csc(n2)-c2ccnc(c2)CCCNC1=O` (stereo not shown) [Example 197] registered an IC50 of less than 1000 nM.

For `NCCC(=O)N1CCCc2cc(ccn2)-c2nc(cs2)C(=O)Nc2cn(C3CCOCC3)nc2C(=O)NCC1` [Example 178], the IC50 was less than 100 nM.

The molecule `O=C1CNC(=O)c2nn(C3CCOCC3)cc2NC(=O)c2csc(n2)-c2ccnc(c2)CCCN1` [Example 196] had an IC50 of less than 100 nM.

As for `O=C1NCCCCCCOc2cc(ccn2)-c2nc1co2` [Compound 58], the IC50 was less than 1000 nM.

Turning to `O=C1Nc2ccccc2OCCCCCNc2cc(ccn2)-c2nc1cs2` [Compound 13], the IC50 is less than 100 nM.

Take `CC1CCCC(C)Oc2ccccc2NC(=O)c2coc(n2)-c2ccnc(c2)N1` (stereo not shown) [Example 71]: the IC50 was less than 100 nM.

`O=C1Nc2cn(C3CCNCC3)nc2C(=O)NCCOCCOc2cc(ccn2)-c2nc1cs2` [Example 165] returned an IC50 of less than 100 nM.

`O=C1c2coc(n2)-c2ccnc(c2)OCCCCCCN1Cc1ccccc1` [Compound 51] returned an IC50 of less than 10000 nM.

`CCNC(=O)N1CCCc2cc(ccn2)-c2nc(cs2)C(=O)Nc2cn(C3CCOCC3)nc2C(=O)NCC1` [Example 191]: the IC50 is less than 100 nM.

For the molecule `O=C1NCCCCCCCCNc2cc(ccn2)-c2nc1co2` [Example 68], the IC50 was less than 100 nM.

Consider `Cn1cc2c(n1)C(=O)NCCCCCc1cc(ccn1)-c1nc(co1)C(=O)N2` [Compound 39], for which the IC50 is less than 100 nM.

With `O=C1Nc2cc(C(=O)N3CCOCC3)ccc2OCCCCCNc2cc(ccn2)-c2nc1cs2` [Compound 22], the IC50 was less than 100 nM.

In turn, `CN1CCCCCCOc2cc(ccn2)-c2nc(cs2)C1=O` [Example 103] displayed an IC50 of less than 10000 nM.

In turn, `Cn1cc2c(n1)C(=O)NCCCCCn1cc(cn1)-c1nc(co1)C(=O)N2` [Compound 41] had an IC50 of less than 1000 nM.

As for `Cn1cc2c(n1)C(=O)NCCCCCOc1cnccc1-c1nc(co1)C(=O)N2` [Example 63], the IC50 was less than 100 nM.

As for `CNC(=O)N1CCCc2cc(ccn2)-c2nc(cs2)C(=O)Nc2cn(C3CCOCC3)nc2C(=O)NCC1` [Example 186], the IC50 was less than 100 nM.

The molecule `O=C(O)CCC1NC(=O)c2nn(C3CCOCC3)cc2NC(=O)c2csc(n2)-c2ccnc(c2)CCCNC1=O` (stereo not shown) [Example 194] returned an IC50 of less than 10000 nM.

The same assay, now with this note: 1 nM IRAK4, 1.6 μM peptide, 10 μM ATP, 3.5 h at RT; given as numeric bound.
Regarding `O=C1c2coc(n2)-c2ccnc(c2)OCCCCCCN1CCCN1CCCCC1` [Compound 57], the IC50 is greater than 10000 nM.

Take `CN1CCCOc2cnccc2-c2nc(c[nH]2)C1=O` [Example 101]: the IC50 was greater than 10000 nM.

`O=C1Nc2ccccc2OCCCCNc2cc(ccn2)-c2nc1co2` [Example 70] returned an IC50 greater than 10000 nM.

As to `Cn1cc2c(n1)C(=O)NCCCCOc1cc(ccn1)-c1nc(cn1COCC[Si](C)(C)C)C(=O)N2` [Example 94], the IC50 is greater than 10000 nM.

In turn, `Cn1cc(N2CCCCOc3cnccc3-c3nc(co3)C2=O)cn1` [Example 89] showed an IC50 greater than 10000 nM.

For the molecule `O=C1Nc2cn(C3CCOCC3)nc2C(=O)NC(CCOCc2ccccc2)C(=O)NCCCc2cc(ccn2)-c2nc1cs2` (stereo not shown) [Example 199], the IC50 is greater than 10000 nM.

Molecule `CN1CCCOc2cnccc2-c2nc(cs2)C1=O` [Example 100] returned an IC50 greater than 10000 nM.

Molecule `O=C1NCC(C2CCCCC2)OCCCCCNc2cc(ccn2)-c2nc1co2` (stereo not shown) [Example 77] had an IC50 greater than 10000 nM.

`Cn1cc2c(n1)C(=O)NCCOCCOc1cc(ccn1)C1=CC=C(S1)C(=O)N2` [Example 205] returned an IC50 greater than 10000 nM.

`CN(C)CCCN1CCCCCCOc2cc(ccn2)-c2nc(co2)C1=O` [Compound 55]: the IC50 is greater than 10000 nM.

For `CCOC(=O)CN1CCCc2cc(ccn2)-c2nc(cs2)C(=O)Nc2cn(C3CCOCC3)nc2C(=O)NCC1` [Example 176], the IC50 is greater than 10000 nM.

In turn, `CN1CCCCCCOc2cc(ccn2)-c2nc(co2)C1=O` [Compound 52] gave an IC50 greater than 10000 nM.

(Values after patent publication US9617282B2, “Macrocyclic compounds as IRAK4 inhibitors for the treatment of inflammatory diseases” (BIOGEN MA INC., priority 2013, dated 2017).)
